How the values were obtained:
rTg4510 mice = test: Open Field (OF) test, locomotor activity in rTg4510 mouse model of Alzheimer's Disease (Example 2; DS = DS-C); format: in vivo; details: for Locomotor activity totals, Mean / Locomotor activity totals, % vs Wild-type / Locomotor activity totals, % vs rTg4510: Doxycycline 200 ppm diet
Protocol: The aim of this study was to evaluate the efficacy of the present drug substance to modulate the agitation-like behaviours in the rTg4510 regulatable mouse model of Alzheimer's Disease (AD). Animals were tested in a behavioural assay, the Open Field (OF) test to measure locomotor activity (LMA). Activity was first assessed at a 21-week-old baseline to determine whether a hyperactive phenotype (to be used as a proxy for agitation) had developed and was further assessed at 2 subsequent ages in acute and chronic efficacy phases.
Ninety male rTg4510 (CC) mice and 15 wild-type (WW) (Tg(Camk2a-tTA)1Mmay Fgf14^Tg(tetO-MAPT*P301L)4510Kha/J, Jax strain #024854, licensed from the Mayo Clinic, USA) were split into 2 cohorts, 4 weeks apart in age; cohort 1 contained 53 mice (8 WW and 45 CC) and cohort 2 contained 52 mice (7 WW and 45 CC). Relative humidity was 55±15% throughout. Mice were housed in individually ventilated cages on a 12 h/12 h light/dark cycle (lights on at 07.00 h; illumination by red light during the dark phase), at an ambient temperature of 24±4° C. with free access to standard rodent maintenance diet and filtered water. Animals were allowed to acclimatise to the above conditions for 7-10 days prior to the study start. All housing groupings were preserved until the mice were approximately 5 months old, at which point they were singly housed.
Doxycycline administration: a subset of animals in cohort 2 (n=15) was administered 2× daily oral bolus doses of doxycycline hyclate (10 mg/kg p.o. in 5% glucose, Sigma Aldrich) at 13 weeks of age, followed by continuous exposure to normal lab chow containing 200 ppm doxycycline (Envigo Teklad 2018 TD.00502 no colourants, irradiated and vacuum-packed). All other animals received Envigo Teklad 2018 diet. All diet was provided ad libitum.
Following this regime, animals were evaluated in Open Field (OF) test, before being deeply anaesthetised at the end of the behavioural testing prior to biofluid sampling and tissue harvesting.
Specifically, the material was solubilised by the addition of 50 μL of 10% glacial acetic acid and making up to volume with 0.9% saline (Aquapharm, Animal Care, York, UK, Lot 21030311).
Drug Substance (DS): (i.e., DS-C, See Table B in Example 1) Dosing volume was 10 mL/kg and DS was formulated at the 150 mg/kg dose in a vehicle of ethanol: Kolliphor HS15: 0.9% saline (1:12:87, w/w/v) which were stored at room temperature and added at approximately 60° C. to form solutions which were subsequently stable at room temperature. All dosing formulations were protected from light whenever possible. Dosing solutions were made fresh on the day of dosing, with lower dose formulations being prepared by dilution from the 150 mg/kg dosing solution at room temperature.
Locomotor activity was assessed by OF test in the light phase of the light-dark cycle at weeks 21, 26 and 31. An automated beam break apparatus (40 cages) was used for the assessment of locomotor activity in rats and mice. Each cage had 4 beams; 1 ‘y’ and 3 ‘x’ which triggered a signal through capacitors when the beam was broken. Signals were collected by data loggers and processed accordingly. All animals were placed in the apparatus and spontaneous activity was assessed for a four-hour period between 0900 and 1300. Animals were then removed from the apparatus and returned to their home cages. LMA assessment was split over 2 consecutive days at each time point.
For locomotor data, a log (x+1) transformation was used. For weeks 21 & 26, means and SEMs were calculated from the transformed data. Analysis was by Friedman's two-way nonparametric ANOVA with treatment and test day as factors to compare each group to the WW animals, and (where appropriate) Doxycycline with the untreated rTg4510 group. For week 30, data excluding the WW and Doxycycline groups for each time period were analysed by robust regression model using M estimation, Huber weighting, using the default parameter c=1.345. […]

[1] = Brain weight of rTg4510 mice (Example 2); format: in vivo, mouse; details: rTg4510 CC mice administered doxycycline; end of study
Protocol: Brain Tissue Collection: Mice were decapitated and the brains rapidly extracted. Brains were briefly washed in saline and blot dried then hemisected, weighed separately and frozen on dry ice before storage at approximately −80° C.
Brain weights were analysed by 2-way analysis of variance with treatment and cohort as factors.

[2] = Weekly body weight of rTg4510 mice (Example 2); format: in vivo, mouse; details: rTg4510 mice fed doxycycline; 15 weeks of age
Protocol: Weekly bodyweight: all animals were weighed weekly until the end of the study.
Weekly body weight data were analysed by mixed linear model with the cohort by week and group by week interactions as fixed effects, animal as the random subject, using an AR (1)+RE correlation structure. Comparisons to the WW and rTg4510 (vehicle) groups for the same week were by the multiple t test.

[3] = Week 31, 0-240 minute period, doxycycline-treated group

C[C@H]1c2cccc(O)c2C(=O)C2=C(O)[C@]3(O)C(=O)C(C(N)=O)=C(O)[C@@H](N(C)C)[C@@H]3[C@@H](O)[C@@H]21 [Doxycycline, doxycycline hyclate]
Locomotor activity totals, Mean (rTg4510 mice; Week 21, 0-30 minutes): 855.0
Locomotor activity totals, Mean (rTg4510 mice; Week 21, 0-60 minutes): 1624.9
Locomotor activity totals, Mean (rTg4510 mice; Week 21, 0-240 minutes): 3476.4
Locomotor activity totals, Mean (rTg4510 mice; Week 21, 30-60 minutes): 749.9
Locomotor activity totals, Mean (rTg4510 mice; Week 21, 60-90 minutes): 542.2
Locomotor activity totals, Mean (rTg4510 mice; Week 21, 60-120 minutes): 880.1
Locomotor activity totals, Mean (rTg4510 mice; Week 21, 90-120 minutes): 283.2
Locomotor activity totals, Mean (rTg4510 mice; Week 21, 120-150 minutes): 227.4
Locomotor activity totals, Mean (rTg4510 mice; Week 21, 120-180 minutes): 521.1
Locomotor activity totals, Mean (rTg4510 mice; Week 21, 150-180 minutes): 181.8
Locomotor activity totals, Mean (rTg4510 mice; Week 21, 180-210 minutes): 71.1
Locomotor activity totals, Mean (rTg4510 mice; Week 21, 180-240 minutes): 212.8
Locomotor activity totals, Mean (rTg4510 mice; Week 21, 210-240 minutes): 52.4
Locomotor activity totals, Mean (rTg4510 mice; Week 26, 0-30 minutes): 903.7
Locomotor activity totals, Mean (rTg4510 mice; Week 26, 0-60 minutes): 1606.6
Locomotor activity totals, Mean (rTg4510 mice; Week 26, 0-240 minutes): 3435.5
Locomotor activity totals, Mean (rTg4510 mice; Week 26, 30-60 minutes): 664.6
Locomotor activity totals, Mean (rTg4510 mice; Week 26, 60-90 minutes): 489.8
Locomotor activity totals, Mean (rTg4510 mice; Week 26, 60-120 minutes): 770.3
Locomotor activity totals, Mean (rTg4510 mice; Week 26, 90-120 minutes): 186.7
Locomotor activity totals, Mean (rTg4510 mice; Week 26, 120-150 minutes): 157.0
Locomotor activity totals, Mean (rTg4510 mice; Week 26, 120-180 minutes): 459.9
Locomotor activity totals, Mean (rTg4510 mice; Week 26, 150-180 minutes): 142.2
Locomotor activity totals, Mean (rTg4510 mice; Week 26, 180-210 minutes): 185.3
Locomotor activity totals, Mean (rTg4510 mice; Week 26, 180-240 minutes): 362.6
Locomotor activity totals, Mean (rTg4510 mice; Week 26, 210-240 minutes): 41.3
Locomotor activity totals, % vs Wild-type (rTg4510 mice; Week 31, 0-30 minutes): 143.2%
Locomotor activity totals, % vs rTg4510 (rTg4510 mice; Week 31, 0-30 minutes): 58.7%
Locomotor activity totals, Mean (rTg4510 mice; Week 31, 0-30 minutes): 744.04
Locomotor activity totals, % vs Wild-type (rTg4510 mice; Week 31, 0-60 minutes): 144.7%
Locomotor activity totals, % vs rTg4510 (rTg4510 mice; Week 31, 0-60 minutes): 47.6%
Locomotor activity totals, Mean (rTg4510 mice; Week 31, 0-60 minutes): 1216.28
activity as % of the activity seen in the WW animals (rTg4510 mice; [3]): 100.6%
activity as % of the activity seen in the rTg4510(vehicle) animals (rTg4510 mice; [3]): 26.2%
Locomotor activity totals, % vs Wild-type (rTg4510 mice; Week 31, 30-60 minutes): 141.7%
Locomotor activity totals, % vs rTg4510 (rTg4510 mice; Week 31, 30-60 minutes): 35.3%
Locomotor activity totals, Mean (rTg4510 mice; Week 31, 30-60 minutes): 445.74
Locomotor activity totals, % vs Wild-type (rTg4510 mice; Week 31, 60-90 minutes): 153.3%
Locomotor activity totals, % vs rTg4510 (rTg4510 mice; Week 31, 60-90 minutes): 37.0%
Locomotor activity totals, Mean (rTg4510 mice; Week 31, 60-90 minutes): 231.53
Locomotor activity totals, % vs Wild-type (rTg4510 mice; Week 31, 60-120 minutes): 176.8%
Locomotor activity totals, % vs rTg4510 (rTg4510 mice; Week 31, 60-120 minutes): 49.4%
Locomotor activity totals, Mean (rTg4510 mice; Week 31, 60-120 minutes): 477.89
Locomotor activity totals, % vs Wild-type (rTg4510 mice; Week 31, 90-120 minutes): 324.4%
Locomotor activity totals, % vs rTg4510 (rTg4510 mice; Week 31, 90-120 minutes): 110.8%
Locomotor activity totals, Mean (rTg4510 mice; Week 31, 90-120 minutes): 165.38
Locomotor activity totals, % vs Wild-type (rTg4510 mice; Week 31, 120-150 minutes): 134.8%
Locomotor activity totals, % vs rTg4510 (rTg4510 mice; Week 31, 120-150 minutes): 63.1%
Locomotor activity totals, Mean (rTg4510 mice; Week 31, 120-150 minutes): 105.17
Locomotor activity totals, % vs Wild-type (rTg4510 mice; Week 31, 150-180 minutes): 135.0%
Locomotor activity totals, % vs rTg4510 (rTg4510 mice; Week 31, 150-180 minutes): 33.9%
Locomotor activity totals, Mean (rTg4510 mice; Week 31, 150-180 minutes): 28.13
Locomotor activity totals, % vs Wild-type (rTg4510 mice; Week 31, 180-210 minutes): 8.9%
Locomotor activity totals, % vs rTg4510 (rTg4510 mice; Week 31, 180-210 minutes): 5.6%
Locomotor activity totals, Mean (rTg4510 mice; Week 31, 180-210 minutes): 1.72
Locomotor activity totals, % vs Wild-type (rTg4510 mice; Week 31, 210-240 minutes): 90.8%
Locomotor activity totals, % vs rTg4510 (rTg4510 mice; Week 31, 210-240 minutes): 117.5%
Locomotor activity totals, Mean (rTg4510 mice; Week 31, 210-240 minutes): 16.18
mean brain weight [1]: 408.8 ± 6.1 mg
body weight [2]: 29.14 ± 0.50 g
